Key:
[1] = target: T1, FGFR4 (Homo sapiens, UniProt P22455); experiment: Biochemical kinase assay (MSA), IC50
T1 construct: purchased Carna Biosciences (only by web pointer)

[2] = target: T2, FGFR3 (Homo sapiens, UniProt P22607); experiment: Biochemical kinase assay (MSA), IC50
T2 construct: purchased Carna Biosciences (only by web pointer)

[3] = tested on: RET-altered cell lines (LC-2/ad, TT); experiment: Cell viability assay, RET-altered versus RET wild-type cell lines; assay type: cell-based; conditions: for lower IC50 in RET-altered versus wild-type cell lines: MANOVA
[4] = target: T3, FGFR2 (Homo sapiens, UniProt P21802); experiment: Biochemical kinase assay (MSA), IC50
T3 construct: purchased Carna Biosciences (only by web pointer)

[5] = target: T4, FGFR1 (Homo sapiens, UniProt P11362); experiment: Biochemical kinase assay (MSA), IC50
T4 construct: purchased Carna Biosciences (only by web pointer)

[6] = target: MEK1 (Homo sapiens, UniProt Q02750); experiment: Enzyme-linked immunosorbent assay (ELISA) of enzymatic activity, IC50; assay type: biochemical
[7] = target: MEK2 (Homo sapiens, UniProt P36507); experiment: as above; assay type: biochemical
[8] = tested on: EGFR double mutants p.ex19del/T790M and p.L858R/T790M; experiment: Biochemical kinase assays with EGFR mutants
[9] = tested on: NCI-H1975 (EGFR p.L858R + p.T790M); experiment: Cell viability assay; assay type: cell-based
[10] = target: T5, BRK (Homo sapiens, UniProt Q13882); experiment: Biochemical kinase assay (MSA), IC50
T5 construct: purchased Carna Biosciences (only by web pointer)

[11] = tested on: ERBB2-amplified cell lines; experiment: Cell viability assay, ERBB2-amplified versus non-amplified cell lines; assay type: cell-based; conditions: MANOVA
Experimental: The effect of compounds on cell viability was determined by measuring intracellular ATP content as an indirect readout of cell number ([15]). […] A vehicle-treated control (0.4% (v/v) DMSO) was included in quadruplicate on the same assay plate to determine maximum cell growth. The final DMSO concentration was 0.4% (v/v) in all wells. After incubation for another 72 hours, ATP content in each well was measured as described previously. […] When the cell doubling deviated > 2-fold from the historic doubling as determined in multiple independent experiments, the experiment was invalidated and repeated. […] IC50 values of kinase inhibitors were calculated by fitting a 4-parameter logistic curve to the percentage viability values using IDBS XLfit5 (IDBS, Guildford, United Kingdom). […] . For some compounds, biphasic curves were measured in one or more cell lines, indicating a dual mechanism of action in these cell lines ([29]). […] For all bioinformatic analyses, ^10log(IC50 [nmol/L]) values were used.
Cell lines were classified as having an alteration in a specific cancer gene if at least one allele was altered by point mutation, insertion, deletion, fusion, or amplification. The mutation, fusion, and amplification status of the cell lines was retrieved from the COSMIC cell lines project (version 80) ([23]), Cancer Cell Line Encyclopedia (CCLE), DepMap (version 22Q1) ([16]), and Cellosaurus ([30]) databases. In order to ensure that genomic alterations included in subsequent analyses were relevant to cancer growth and drug response, mutations were only included when they were either reported as a hotspot mutation in Cancer Hotspots ([31]), described as oncogenic and gain-of-function in OncoKB or JAX CKB, or described as pathogenic in the literature. […] J82 was therefore annotated as FGFR3 wild-type.
All statistical analyses were performed in R (version 4.1.2), unless otherwise indicated. A two-sided Mann-Whitney test was performed for two-group comparisons. […] . Multivariate analysis of variance (MANOVA) was performed for multi-group comparison.

[12] = tested on: FLT3 ITD-mutant cell lines MOLM-13 and MV4-11; experiment: Cell viability assay; assay type: cell-based
[13] = target: T6, ROS (Homo sapiens, UniProt P08922); experiment: Biochemical kinase assay (MSA), IC50; conditions: biochemical assays
T6 construct: purchased Carna Biosciences (only by web pointer)

[14] = target: T7, ALK (Homo sapiens, UniProt Q9UM73); experiment: Biochemical kinase assay (MSA), IC50
T7 construct: purchased Carna Biosciences (only by web pointer)

[15] = target: T8, EGFR (Homo sapiens, UniProt P00533); experiment: Biochemical kinase assay (MSA), IC50
T8 construct: purchased Carna Biosciences (only by web pointer)

[16] = target: T9, HER4 (Homo sapiens, UniProt Q15303); experiment: Biochemical kinase assay (MSA), IC50
T9 construct: purchased Carna Biosciences (only by web pointer)

[17] = target: T10, HER2 (Homo sapiens, UniProt P04626); experiment: Biochemical kinase assay (MSA), IC50
T10 construct: purchased Carna Biosciences (only by web pointer)

[18] = tested on: ALK-altered cell lines; experiment: Cell viability assay, ALK-altered versus ALK wild-type cell lines; assay type: cell-based; conditions: MANOVA
[19] = target: T11, RET (Homo sapiens, UniProt P07949); experiment: Biochemical kinase assay (MSA), IC50; conditions: biochemical assays
T11 construct: purchased Carna Biosciences (only by web pointer)

[20] = target: T12, FLT3 (Homo sapiens, UniProt P36888); experiment: Biochemical kinase assay (MSA), IC50; conditions: biochemical assays
T12 construct: purchased Carna Biosciences (only by web pointer)

[21] = tested on: MET-altered cell lines; conditions: MANOVA

T3 sequence (P21802 22-821): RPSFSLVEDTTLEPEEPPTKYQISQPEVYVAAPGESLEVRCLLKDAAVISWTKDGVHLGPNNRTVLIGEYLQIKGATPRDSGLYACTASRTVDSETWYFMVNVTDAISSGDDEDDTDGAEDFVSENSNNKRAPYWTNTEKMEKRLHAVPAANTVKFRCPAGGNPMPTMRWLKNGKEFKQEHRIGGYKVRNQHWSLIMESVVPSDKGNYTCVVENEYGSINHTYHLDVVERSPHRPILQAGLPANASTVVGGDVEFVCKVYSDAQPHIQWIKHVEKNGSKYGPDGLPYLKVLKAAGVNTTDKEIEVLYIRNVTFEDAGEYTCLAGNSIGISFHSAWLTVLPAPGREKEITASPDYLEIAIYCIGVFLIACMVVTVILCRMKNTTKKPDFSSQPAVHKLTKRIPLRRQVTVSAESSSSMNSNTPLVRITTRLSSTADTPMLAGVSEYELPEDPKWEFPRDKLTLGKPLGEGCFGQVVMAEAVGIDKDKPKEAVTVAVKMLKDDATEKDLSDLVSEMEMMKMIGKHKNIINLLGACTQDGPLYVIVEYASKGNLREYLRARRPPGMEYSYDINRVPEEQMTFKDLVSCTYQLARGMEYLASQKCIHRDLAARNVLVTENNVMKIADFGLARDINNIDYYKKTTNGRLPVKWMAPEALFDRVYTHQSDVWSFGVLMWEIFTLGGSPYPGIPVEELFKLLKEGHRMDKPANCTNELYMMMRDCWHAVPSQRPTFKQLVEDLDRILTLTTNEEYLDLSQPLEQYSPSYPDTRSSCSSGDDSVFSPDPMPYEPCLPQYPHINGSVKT
T7 sequence (Q9UM73 19-1620): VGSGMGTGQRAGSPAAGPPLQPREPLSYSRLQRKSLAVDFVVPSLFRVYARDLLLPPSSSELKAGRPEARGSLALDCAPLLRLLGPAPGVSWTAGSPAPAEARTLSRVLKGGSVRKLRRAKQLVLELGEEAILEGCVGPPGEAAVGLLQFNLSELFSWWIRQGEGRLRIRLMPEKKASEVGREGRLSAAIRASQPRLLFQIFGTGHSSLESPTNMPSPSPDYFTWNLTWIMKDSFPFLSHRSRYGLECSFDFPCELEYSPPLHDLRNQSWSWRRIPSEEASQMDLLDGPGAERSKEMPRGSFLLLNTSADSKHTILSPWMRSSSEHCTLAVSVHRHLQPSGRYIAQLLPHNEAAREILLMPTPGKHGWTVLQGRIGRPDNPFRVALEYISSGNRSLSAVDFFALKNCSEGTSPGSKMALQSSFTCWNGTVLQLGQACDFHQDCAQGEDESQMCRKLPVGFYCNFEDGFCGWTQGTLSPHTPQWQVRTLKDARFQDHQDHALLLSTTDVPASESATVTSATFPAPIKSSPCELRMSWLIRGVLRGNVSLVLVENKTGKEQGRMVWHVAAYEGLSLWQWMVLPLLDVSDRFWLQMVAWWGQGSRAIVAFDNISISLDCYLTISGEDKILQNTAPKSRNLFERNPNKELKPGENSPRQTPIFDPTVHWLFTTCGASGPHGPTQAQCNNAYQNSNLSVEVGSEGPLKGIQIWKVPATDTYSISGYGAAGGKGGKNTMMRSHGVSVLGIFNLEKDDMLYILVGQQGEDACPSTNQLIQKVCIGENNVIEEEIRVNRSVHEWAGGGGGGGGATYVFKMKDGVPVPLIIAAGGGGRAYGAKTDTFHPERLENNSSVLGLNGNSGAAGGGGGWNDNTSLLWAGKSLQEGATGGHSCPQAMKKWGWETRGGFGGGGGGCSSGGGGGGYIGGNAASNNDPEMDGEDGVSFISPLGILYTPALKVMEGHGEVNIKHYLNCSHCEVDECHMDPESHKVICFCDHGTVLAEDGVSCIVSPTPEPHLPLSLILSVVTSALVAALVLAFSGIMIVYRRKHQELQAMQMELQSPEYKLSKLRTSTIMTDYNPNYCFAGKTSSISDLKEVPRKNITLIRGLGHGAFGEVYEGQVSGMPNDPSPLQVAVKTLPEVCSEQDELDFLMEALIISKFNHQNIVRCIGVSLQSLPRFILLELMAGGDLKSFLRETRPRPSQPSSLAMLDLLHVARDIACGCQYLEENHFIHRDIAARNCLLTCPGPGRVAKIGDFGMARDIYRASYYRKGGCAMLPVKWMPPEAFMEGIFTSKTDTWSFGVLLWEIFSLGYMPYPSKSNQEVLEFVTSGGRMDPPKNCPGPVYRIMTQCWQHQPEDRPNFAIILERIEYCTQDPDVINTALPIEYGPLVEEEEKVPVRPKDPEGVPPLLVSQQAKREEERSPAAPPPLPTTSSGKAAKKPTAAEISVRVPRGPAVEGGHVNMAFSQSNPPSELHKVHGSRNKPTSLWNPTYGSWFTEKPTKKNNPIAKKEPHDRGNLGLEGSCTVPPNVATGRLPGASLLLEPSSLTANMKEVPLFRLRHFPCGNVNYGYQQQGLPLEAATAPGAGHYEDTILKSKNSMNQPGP
T1 sequence (P22455 22-802): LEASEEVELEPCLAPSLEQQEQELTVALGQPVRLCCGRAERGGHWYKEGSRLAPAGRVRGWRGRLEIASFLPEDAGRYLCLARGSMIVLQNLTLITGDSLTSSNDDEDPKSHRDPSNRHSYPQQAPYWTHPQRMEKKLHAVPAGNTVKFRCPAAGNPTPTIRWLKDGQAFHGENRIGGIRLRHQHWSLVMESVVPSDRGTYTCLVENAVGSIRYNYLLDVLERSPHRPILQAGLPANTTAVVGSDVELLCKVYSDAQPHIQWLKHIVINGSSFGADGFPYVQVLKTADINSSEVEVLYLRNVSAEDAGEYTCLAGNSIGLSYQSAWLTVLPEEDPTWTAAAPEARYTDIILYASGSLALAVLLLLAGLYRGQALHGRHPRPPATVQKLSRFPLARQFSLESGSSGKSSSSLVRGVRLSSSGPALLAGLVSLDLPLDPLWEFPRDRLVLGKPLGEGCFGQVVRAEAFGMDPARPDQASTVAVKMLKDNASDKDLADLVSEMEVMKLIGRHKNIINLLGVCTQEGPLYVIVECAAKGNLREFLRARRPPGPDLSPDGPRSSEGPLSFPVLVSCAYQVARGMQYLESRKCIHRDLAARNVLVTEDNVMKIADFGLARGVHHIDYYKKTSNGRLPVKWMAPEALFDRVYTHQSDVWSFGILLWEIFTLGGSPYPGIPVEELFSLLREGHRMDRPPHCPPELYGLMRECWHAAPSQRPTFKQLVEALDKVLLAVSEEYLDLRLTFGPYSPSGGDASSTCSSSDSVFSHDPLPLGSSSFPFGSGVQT
T4 sequence (P11362 22-822): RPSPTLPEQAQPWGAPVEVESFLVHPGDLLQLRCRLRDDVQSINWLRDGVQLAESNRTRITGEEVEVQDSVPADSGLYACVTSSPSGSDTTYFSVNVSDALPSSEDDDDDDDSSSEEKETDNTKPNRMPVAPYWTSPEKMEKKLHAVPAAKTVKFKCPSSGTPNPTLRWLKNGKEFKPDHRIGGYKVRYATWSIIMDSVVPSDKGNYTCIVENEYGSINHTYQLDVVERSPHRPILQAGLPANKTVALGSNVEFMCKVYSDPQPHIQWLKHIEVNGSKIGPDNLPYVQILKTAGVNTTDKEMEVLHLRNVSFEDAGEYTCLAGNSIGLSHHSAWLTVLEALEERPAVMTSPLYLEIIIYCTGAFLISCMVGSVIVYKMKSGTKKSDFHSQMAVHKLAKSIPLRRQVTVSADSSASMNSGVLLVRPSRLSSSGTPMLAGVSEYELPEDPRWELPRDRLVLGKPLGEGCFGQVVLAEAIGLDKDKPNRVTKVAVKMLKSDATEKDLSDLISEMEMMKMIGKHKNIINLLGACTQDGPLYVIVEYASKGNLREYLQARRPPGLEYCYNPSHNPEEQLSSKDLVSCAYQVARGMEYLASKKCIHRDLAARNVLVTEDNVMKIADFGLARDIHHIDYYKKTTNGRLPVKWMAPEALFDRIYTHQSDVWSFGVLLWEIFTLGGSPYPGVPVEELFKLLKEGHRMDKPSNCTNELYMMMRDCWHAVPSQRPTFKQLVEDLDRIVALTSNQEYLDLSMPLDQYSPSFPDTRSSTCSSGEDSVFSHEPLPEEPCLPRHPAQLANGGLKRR
MEK2, sequence (P36507 whole entry): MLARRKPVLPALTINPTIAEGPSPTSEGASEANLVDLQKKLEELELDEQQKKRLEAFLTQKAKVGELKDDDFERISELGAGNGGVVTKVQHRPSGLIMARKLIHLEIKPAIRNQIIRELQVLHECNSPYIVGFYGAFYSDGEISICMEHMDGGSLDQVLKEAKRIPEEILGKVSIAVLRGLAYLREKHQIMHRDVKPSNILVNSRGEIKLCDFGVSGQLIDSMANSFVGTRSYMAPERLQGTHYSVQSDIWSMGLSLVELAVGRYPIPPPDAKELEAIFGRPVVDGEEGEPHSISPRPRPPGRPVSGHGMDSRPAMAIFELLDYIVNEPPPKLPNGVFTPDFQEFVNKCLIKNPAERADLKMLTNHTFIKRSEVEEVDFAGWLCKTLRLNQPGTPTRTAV
MEK1, sequence (Q02750 whole entry): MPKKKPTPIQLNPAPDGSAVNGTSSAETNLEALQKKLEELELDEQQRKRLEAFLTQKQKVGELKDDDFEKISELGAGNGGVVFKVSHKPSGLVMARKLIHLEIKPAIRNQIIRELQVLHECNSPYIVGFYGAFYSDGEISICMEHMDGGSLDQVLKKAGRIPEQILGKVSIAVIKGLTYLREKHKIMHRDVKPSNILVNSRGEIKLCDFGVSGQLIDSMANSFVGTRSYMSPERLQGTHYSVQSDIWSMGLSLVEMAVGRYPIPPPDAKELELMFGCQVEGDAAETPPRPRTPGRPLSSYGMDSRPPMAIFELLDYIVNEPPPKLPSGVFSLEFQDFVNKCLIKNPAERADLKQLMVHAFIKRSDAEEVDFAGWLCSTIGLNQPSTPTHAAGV

CO[C@]1(C(=O)N[C@@H](C)c2ccc(-n3cc(F)cn3)nc2)CC[C@H](c2nc(C)cc(Nc3cc(C)[nH]n3)n2)CC1 [pralsetinib]
IC50 [1]: 183 nM
IC50 [2]: 50 nM
lower IC50 in RET-altered versus wild-type cell lines [3]: 76 fold
IC50 [4]: 27 nM
IC50 [5]: 11 nM

O=C(c1ccc(F)c(F)c1Nc1ccc(I)cc1F)N1CC(O)([C@@H]2CCCCN2)C1 [cobimetinib]
IC50 [6]: 61 nM
IC50 [7]: 190 nM

COc1cc2ncnc(Nc3ccc(F)c(Cl)c3)c2cc1NC(=O)/C=C/CN1CCCCC1 [dacomitinib]
lower potency on double mutants (p.T790M plus sensitizing mutation) than on wild-type EGFR and sensitizing mutants [8]: 30 fold
lower potency in NCI-H1975 compared to osimertinib [9]: 28 fold

C=CC(=O)N1CCC([C@@H]2CCNc3c(C(N)=O)c(-c4ccc(Oc5ccccc5)cc4)nn32)CC1 [zanubrutinib]
IC50 [10]: 18 nM
preferential targeting of ERBB2-amplified versus non-amplified cell lines [11]: 45 fold

O=C(Nc1cnn2ccc(N3CCC[C@@H]3c3cc(F)ccc3F)nc12)N1CC[C@H](O)C1 [larotrectinib]
higher IC50 in MOLM-13 and MV4-11 compared to AP-1060 ([12]; cell viability): more than 1000 fold
higher IC50 on ROS1 compared to TRKA-C [13]: around 100 fold
IC50 [14]: > 1000 nM

Cc1cc(Nc2ncnc3ccc(NC4=NC(C)(C)CO4)cc23)ccc1Oc1ccn2ncnc2c1 [tucatinib]
IC50 [15]: 6.7 nM
IC50 [16]: 95 nM
IC50 [17]: 3.3 nM

Cn1cnc2c(F)c(Nc3ccc(Br)cc3F)c(C(=O)NOCCO)cc21 [binimetinib]
IC50 [6]: 503 nM
IC50 [7]: > 1000 nM

CN1CCN(c2ccc(C(=O)Nc3n[nH]c4ccc(Cc5cc(F)cc(F)c5)cc34)c(NC3CCOCC3)c2)CC1 [entrectinib]
difference in IC50 between ALK-altered and ALK wild-type cell lines [18]: 12 fold

COc1ccc(CN2C3CC2CN(c2ccc(-c4cc(OCC(C)(C)O)cn5ncc(C#N)c45)cn2)C3)cn1 [selpercatinib]
IC50 [1]: 260 nM
IC50 [2]: 50 nM
lower IC50 in RET-altered versus wild-type cell lines [3]: 232 fold
potency in the RET-altered cell lines compared to pralsetinib ([3]; cell viability): three-fold more potent
IC50 [4]: 16 nM
potency on RET compared to pralsetinib [19]: almost two-fold more potent
IC50 [5]: 46 nM

CC#CC(=O)N1CCC[C@H]1c1nc(-c2ccc(C(=O)Nc3ccccn3)cc2)c2c(N)nccn12 [acalabrutinib]
preferential targeting of ERBB2-amplified versus non-amplified cell lines [11]: 44 fold

CCc1nc(C(N)=O)c(Nc2ccc(N3CCC(N4CCN(C)CC4)CC3)c(OC)c2)nc1NC1CCOCC1 [gilteritinib]
difference in IC50 between ALK-altered and ALK wild-type cell lines [18]: 55 fold
potency in the FLT3 ITD-mutant cell lines compared to midostaurin ([12]; on average): eight times more potent
potency on FLT3 compared to midostaurin [20]: around eight-fold more potent

C=CC(=O)N1CCC[C@@H](n2nc(-c3ccc(Oc4ccccc4)cc3)c3c(N)ncnc32)C1 [ibrutinib]
preferential targeting of ERBB2-amplified versus non-amplified cell lines [11]: 254 fold

CNC(=O)c1ccc(-c2cnc3ncc(Cc4ccc5ncccc5c4)n3n2)cc1F [capmatinib]
higher potency in MET-altered compared to MET wild-type cell lines [21]: over 10,000 fold
IC50 [14]: > 1000 nM
